Experimental data: patent US20130085178A1, “COMPOSITION FOR TREATING BONE DISEASE COMPRISING A GLYCEOLLIN AS AN ACTIVE INGREDIENT” (KYUNGPOOK NATIONAL UNIVERSITY INDUSTRY-ACADEMIC COOPERATION …, priority 2010, published 2013)
“Also recorded” adds a separate entry of the source. Peptide text beside a SMILES is read from it. * marks the point of attachment. Cbz = O=C(OCc1ccccc1)*

Columns and labels:
[1] = tested on: osteoporosis mouse model; assay: Osteoporosis mouse model induced by high dose vitamin D (micro CT, Trichrome staining, TRAP staining of calvarial); type: in vivo, mice (C57BL/6)
Method: Normal mice (C57BL/6) were subcutaneously injected with high dose vitamin D (60×10^4 IU/kg) to obtain osteoporosis mouse model, and monitored during 10 days after first injection. High dose vitamin D activates osteoclasts to reduce mouse bone mass.
(§1) MC3T3E1 cells were treated with 0, 5, 10, 25 and 50 μM of glyceollin during induction of cellular differentiation. RAW264.7 cells were treated with 0, 5, 10 and 25 μM of glyceollin during induction of cellular differentiation. Osteoblasts isolated from mouse calvarial were treated with 0, 10 and 20 μM of glyceollin during induction of cellular differentiation. Osteoporosis mice induced by high dose vitamin D were daily injected 0, 0.5 and 5 μg/kg of glyceollin for 9 days.
To elucidate in vivo inhibitory effect of glyceollin on differentiation of osteoclasts which had been confirmed in vitro, osteoporosis mouse model injected with high dose vitamin D one time a day for 3 days. The mice treated with glyceollins one time a day for 9 days were sacrificed at 10 days after first injection and calvarial was observed by micro CT analysis, Trichrome staining and TRAP staining.

[2] = tested on: RAW264.7 cells; assay: Differentiation of RAW264.7 cells to osteoclasts by TRAP staining; type: cell-based, murine; details: RANKL-induced, 0, 5, 10 and 25 μM glyceollin, TRAP stained 4 days after
Method: (§2) Osteoblasts isolated from calvarial of 18.5 days old mice and mouse MC3T3E1 cells were cultured in alpha-MEM containing 10% FBS at 37° C. in a humidified atmosphere containing 5% CO2. To induce differentiation of osteoblasts and MC3T3E1 cells, 50 μg/ml of ascorbic acid and 10 mM of beta-glycerophosphate are added to alpha-MEM containing 10% FBS. RAW264.7 (murine monocyte/macrophage) cells were cultured in D-MEM containing 10% FBS, and RANKL is added to alpha-MEM containing 10% FBS to induce differentiation to osteoclasts.
as §1
RAW264.7 cells were treated with 0, 5, 10 and 25 μM of glyceollin during induction of differentiation, and then TRAP stained 4 days after to analyze osteoclasts.

[3] = tested on: MC3T3E1 cells; assay: Osteoblast proliferation: morphology, cell number and MTT analysis of glyceollin-treated MC3T3E1 cells; type: cell-based, mouse; details: vs untreated cells
Method: as §2
(§3) To investigate the function of glyceollin on osteoblasts proliferation, morphology and number of glyceollin-treated MC3T3E1 cells were analyzed and MTT analysis was carried out.

[4] = tested on: osteoblasts isolated from mouse calvarial; assay: Proteins and mRNAs related to osteoblast differentiation (Runx2, osteocalcin, Rankl, Opg) in osteoblasts isolated from mouse calvarial; type: cell-based
Method: as §2, §1
Proteins and mRNAs related to osteoblast differentiation were measured in osteoblasts isolated from mouse calvarial which were treated with 0, 10 and 20 μM of glyceollin.
Consequently, Rankl/Opg ratio was decreased by glyceollins in osteoblast differentiation (FIG. 2c).

[5] = tested on: osteoblasts isolated from mouse calvarial; assay: Osteoblast differentiation by ALP staining, Alizarin Red staining and calcium contents; type: cell-based; details: 0, 10 and 20 μM glyceollin
Method: as §2, §1
Osteoblasts isolated from mouse calvarial were treated with 0, 10 and 20 μM of glyceollin during induction of cellular differentiation, and differentiation was analyzed by ALP staining (7 days after differentiation) and Alizarin Red staining (21 days after differentiation).
In addition, calcium contents of osteoblasts (21 days after differentiation) were measured and reduction of calcium was observed as glyceollin concentration increased (FIG. 3c).

[6] = tested on: Runx2; assay: Runx2 protein and mRNA level in MC3T3E1 cells during induction of differentiation; type: cell-based, mouse
Method: as §2, §1, §3
To investigate whether the decrease of Runx2 protein is due to decrease of Runx2 mRNA, mRNA expression patterns were measured after treatment of glyceollin.
The Runx2 protein level decreased by glyceollin was recovered by MG132 (FIG. 1f).

[7] = calvarial micro CT, 0, 0.5 and 5 μg/kg glyceollin daily for 9 days, sacrificed at 10 days
[8] = calvarial, osteoporosis mouse model by high dose vitamin D
[9] = 10 and 20 μM glyceollin during cellular proliferation
[10] = mouse calvarial osteoblasts, 0, 10 and 20 μM glyceollin
[11] = mouse calvarial osteoblasts, real-time PCR, 0, 10 and 20 μM glyceollin, listed as glyceollins

glyceollin
osteoporosis of mouse calvarial mediated by high dose vitamin D (BMC, BMD and TMD analysis after CT) ([1]; administration of glyceollin): recovered
bone mineral contents (BMC) [1, 7]: increased by glyceollin in dose-dependent manner
bone mineral density (BMD) [1, 7]: increased by glyceollin in dose-dependent manner
tissue mineral contents (TMC) [1, 7]: increased by glyceollin in dose-dependent manner
collagen generation (Trichrome staining) [1, 8]: increased
number of osteoclasts (TRAP staining) [1, 8]: decrease
differentiation to osteoclasts (TRAP stained osteoclasts) [2]: inhibited as the concentration of glyceollin increased; also recorded: reduced by glyceollin in dose-dependent manner
morphology of MC3T3E1 cells ([3]; 20 μM glyceollin during cellular proliferation): similar; also recorded: no significant difference
MTT assay for MC3T3-E1 cells [3, 9]: similar; also recorded: no significant difference
number of MC3T3E1 cells [3, 9]: similar; also recorded: no significant difference
Runx2 mRNA level [4, 10]: not changed; also recorded: not affected
osteocalcin mRNA level (differentiation marker of osteoblasts) [4, 10]: decreased according to the concentration of glyceollin; also recorded: Dose-dependent reduction
Runx2 protein level ([4]; mouse calvarial osteoblasts, 0, 10 and 20 μM glyceollin, D21): decreased by glyceollin in dose-dependent manner
Rankl/Opg ratio ([4]; mouse calvarial osteoblasts, osteoblast differentiation): decreased
Rankl mRNA level ([4]; mouse calvarial osteoblasts, real-time PCR, 0, 10 and 20 μM glyceollin): decreased according to the concentration of glyceollin
Opg mRNA level [4, 11]: not affected or slightly increased
Rankl mRNA level [4, 11]: down-regulated
differentiation of osteoblast by ALP staining ([5]; 7 days after differentiation): inhibited by glyceollin in dose-dependent manner
calcium contents of osteoblasts ([5]; 21 days after differentiation): decreased as the concentration of glyceollin increased; also recorded: reduction
differentiation of osteoblast by Alizarin Red staining ([5]; 21 days after differentiation): inhibited according to the concentration of glyceollin; also recorded: inhibited by glyceollin in dose-dependent manner
Runx2 protein level ([6]; MC3T3E1 cells, 0, 5, 10, 25 and 50 μM glyceollin during induction of differentiation): decreased as the concentration of glyceollin increased
Runx2 mRNA level ([6]; MC3T3E1 cells, 10 and 20 μM glyceollin during induction of differentiation): not changed; also recorded: not affected

CC(C)C[C@@H](C=O)NC(=O)[C@H](CC(C)C)NC(=O)[C@H](CC(C)C)NC(=O)OCc1ccccc1 [MG132, reference compound] (Cbz-Leu-Leu-Leu-aldehyde)
Runx2 protein level decreased by glyceollin, after further treatment with proteasome inhibitor ([6]; MC3T3E1 cells, 20 μM glyceollin plus MG132 vs 20 μM glyceollin only): recovered
